Patent publication US20250290076A1, “EPICARDIAL CELL REGENERATION PROMOTER AND METHOD FOR PROMOTING EPICARDIAL CELL REGENERATION” (KYOTO UNIVERSITY, priority 2022, published 2025)

Tests used:
Format in all cases: cell-based
[1] = test system: human iPS cell-derived fetal epicardium; assay: Wound-healing assay; conditions: from 20 hours to 24 hours after scratching; vs negative control siRNA
Procedure: (§1) In the siRNA transfection assay, the human iPS cell-derived fetal epicardium was seeded at a density of 0.8×10^6 cells per 10 cm dish, and transfection was carried out using RNAiMax (Invitrogen). Twenty-four hours after the transfection, the culture medium was replaced with a fresh medium. A small interfering RNA (siRNA) (sense strand: CAAGGAGUCAGACAUUUUAtt (SEQ ID NO: 1), an anti-sense strand: UAAAAUGUCUGACUCCUUGtt (SEQ ID NO: 2)) targeting CDKN1A, and a negative control siRNA No.1 (4390843) derived from Ambion Silencer Select, were used in accordance with the manufacturer's instructions.
The cells were seeded on a six-well plate and cultured until 100% confluent. Subsequently, the cell monolayer was scratched with a pipette tip, to create a physical wound manually. The scratched area was imaged 0, 12, 16, 20 and 24 hours after scratching. The area without cells at the beginning, and the remaining area after 12, 16, 20 and 24 hours, were quantified by Image-J. Thereafter, the percentage of the scratched area into which migrating cells reassembled (the percentage of the wound-closed area) was calculated, with respect to the scratched area.
Further, the wound-healing assay was performed for the human iPS cell-derived fetal epicardium which had been subjected to the transfection assay using each siRNA. […]

CDKN1A = assay: siRNA transfection assay, relative CDKN1A mRNA expression by quantitative RT-PCR; conditions: human iPS cell-derived fetal epicardium; vs negative control siRNA; normalized with GAPDH
Procedure: as §1
RNAs were extracted using QIAzol lysis reagent (manufactured by QIAGEN N.V.), and cDNA was synthesized from the total RNA using ReverTra Ace qPCR RT Master Mix with gDNA Remover (manufactured by TOYOBO Co., Ltd.). Subsequently, quantitative RT-PCR was performed using Thunderbird SYBR qPCR Mix (manufactured by TOYOBO Co., Ltd.)), in One Step Real-Time PCR System (Applied Biosystems). The gene expression results were quantified by the AACt method, and normalized with GAPDH.
The primers used are as follows. […]
The human iPS cell-derived fetal epicardium was subjected to siRNA transfection assay, using a siRNA (siCDKN1A) targeting CDKN1A or a negative control siRNA (control), and the relative mRNA expression levels of CDKN1A were measured by quantitative RT-PCR.

[2] = test system: human iPS cell-derived fetal epicardium; assay: Transcriptome analysis for gene signature of cell quiescence by RNA sequencing; conditions: compared to human iPS cell-derived fetal epicardium and adult epicardium
Procedure: as §1
The data obtained by RNA sequencing were normalized using NOISeq. The data of the adult epicardium are published for the analysis, under the GSE accession number: GSE8484085. The primary data of the RNA sequencing were processed using RStudio, for mapping and gene expression analysis. The gene expression data for searching, loading and pre-processing were processed using the Bioconductor package, NOISeq, for performing the data analysis and the differential expression analysis of the RNA sequencing data. Heatmaps for clustering differentially expressed genes (DEG) were generated, using R script.
In addition, the transcriptome analysis for detecting the gene signature of cell quiescence was carried out by RNA sequencing (FIG. 6). […]

human epicardial cells = assay: Colony formation assay; conditions: colony formation for 14 days after siRNA transfection; vs negative control siRNA
Procedure: as §1
[…] Thereafter, the colony was fixed with 4% PFA, stained with crystal violet, and counted by Image-J.
The colony formation assay was carried out in the same manner, in order to measure the viability of the human epicardial cells.

[3] = test system: human iPS cell-derived fetal epicardium; assay: Cell proliferation curve assay; conditions: cell proliferation curves for 7 days after siRNA transfection; vs negative control siRNA
Procedure: as §1
The cell proliferation was evaluated by the time-course curve of the proliferation of the cells on a six-well plate. The cells were seeded at a density of 4 ×10^4 cells per well, and the total number of cells was counted using trypan blue for 8 days at intervals of 24 hours. The cell proliferation curves were generated by plotting the number of cells against time. After seeding, the cells were fixed with 4% paraformaldehyde (PFA), and stained with crystal violet on the days the cells were counted. The values were represented as the cell proliferation rate of the cells proliferated in the presence of 10% FBS. “0%” refers to the number of cells on day 0. […]

siCDKN1A: siRNA targeting CDKN1A; sense strand CAAGGAGUCAGACAUUUUAtt (SEQ ID NO: 1), anti-sense strand UAAAAUGUCUGACUCCUUGtt (SEQ ID NO: 2) (sense CAAGGAGUCAGACAUUUUATT; antisense UAAAAUGUCUGACUCCUUGTT; chemistry not given here)
wound healing capacity (percentage of the wound-closed area) [1]: significant increase | expression level of CDKN1A at the mRNA level as compared to that in the control (CDKN1A): ≤ 50% | cell quiescence gene signature [2]: more released from quiescence | viability of the human epicardial cells (colony formation) (human epicardial cells): significant increase | proliferative capacity of the human epicardial cells [3]: significant increase
